The results in this text go back to patent US20050009772A1, “Methods and compositions for the treatment of glaucoma and other retinal diseases” (The Regents of the University of California, priority 2003, published 2005).

Entries after “also recorded” stand apart in the source; their conditions may differ.

Test [1] has as its system cells in the retinal ganglion cell layer (RGCL). In words: Counting of cresyl violet-stained cells in the RGCL in rat glaucoma model (Experiment 2). Format: in vivo. The protocol:
(§1) GGA was then given twice a week at the same dose until euthanasia. Sustained elevation of intraocular pressure (IOP) was maintained by performing trabecular laser photocoagulation three weeks after the first photocoagulation. […] IOP and body weight were measured once a week. After 5 weeks of IOP elevation, the number of retrogradely labeled RGCs with dextran tetramethylrhodamine (DTMR) was counted (n=53). The grading of optic nerve injury and the counting of cresyl violet-stained cells in the retinal ganglion cell layer (RGCL) was also performed (n=54).
(§2) Rats were anesthetized with intramuscular injections of 0.8 ml/kg of the anesthetic cocktail described above. A previously published procedure was modified to produce chronic moderately elevated IOP unilaterally, while the untreated contralateral eye served as the comparative control.40 Animals were injected intracamerally with 10 μl of 35% India ink (Becton Dickinson, Cockeysville, Md.) in 0.01 M PBS after removing a similar volume of aqueous. At the end of the procedure, Tobrex ophthalmic ointment (tobramycin 0.3%; Alcon, Fort Worth, Tex.) was applied topically. Five days after intracameral injection of India ink, a dark band at the limbus was noted due to the aggregation of carbon particles in the trabecular meshwork.38 After anesthesia, approximately 200 laser burns were delivered ab externo to the pigmented trabecular band at laser settings of 200 μm diameter, 200 mW power and 0.2 seconds duration. Three weeks after the first laser treatment, another trabecular laser photocoagulation was performed without further injection of ink.
Corresponding loss of cells from the RGCL was evaluated by counting cells in the RGCL in cresyl violet-stained retinas. After collecting the optic nerves, enucleated eyeballs were postfixed in 10% neutral buffered formalin for 1 hour and washed in 0.1 M phosphate buffer (pH 7.4). The retinas were dissected and flat mounted on a slide, vitreal side up. Four radial cuts were made in the peripheral retinas. The specimens were dried overnight, stained with 1% cresyl violet, dehydrated, and covered with coverslips. Morphologically distinguishable glial cells and vascular endothelial cells were not counted. Cells with cytoplasm rich in Nissl substance and with irregular outlines were counted as neurons.43 The numbers of neurons in the RGCL in regions 1 mm (posterior), 2 mm (mid-peripheral) and 3 mm (peripheral) from the center of the optic nerve head were taken with an eye-piece reticule of a microscope at 400× magnification. The counting was performed by two investigators in a masked fashion and averaged.

A further test concerns optic nerve axons. Nature of the test: Grading of optic nerve injury in rat glaucoma model (Experiment 2). Type of test: in vivo. The protocol: as §1, §2
To examine the effect on RGC axons, optic nerve injury was evaluated with an established method.41 After 5 weeks of IOP elevation, deeply anesthetized animals were perfused with a solution of 4% paraformaldehyde and 1% glutaraldehyde. Optic nerve segments […] behind the globe were dissected, washed, postfixed with 5% glutaraldehyde, dehydrated, and embedded. One μm-thick sections were cut and stained with 1% toluidine blue. Optic nerve cross sections were examined under light microscopy and assessed by three independent masked observers. A graded scale of optic nerve injury ranging from 1 (normal) to 5 (total degeneration) was used. Data obtained from three observers were averaged and presented as mean ±SEM.

The test system of a further test is HSC70. In words: Quantitative immunohistochemical analysis of HSC70 in the RGCL after 1 week of IOP elevation (Experiment 3). Format: in vivo, rat. Particulars: among all the groups, 1 week after laser. The protocol:
TdT-mediated biotin-dUTP nick end labeling (TUNEL) and immunohistochemical analysis for HSP72 and HSC70 were performed.
Animals were deeply anesthetized with intramuscular injections of 0.8 ml/kg of a cocktail of 5 ml ketamine (100 mg/ml), 2.5 ml xylazine (20 mg/ml), 1.0 ml acepromazine (10 mg/ml), and 1.5 ml normal saline. Then they were transcardially perfused with 4% paraformaldehyde in 0.1 M phosphate buffer. The enucleated eyeballs were immersed in fixative for 1 hour, bisected and post-fixed overnight. The eyes were embedded in paraffin and sectioned at a four-μm thickness along the vertical meridian through the optic nerve head. […] Antigen-antibody complexes were detected by an avidin-biotin-peroxidase technique (Vectastain ABC Kit; Vector Laboratories). […]
Immunohistochemical staining was analyzed quantitatively with a computer-assisted image processing unit (Image-Pro Plus software, Media Cybernetics, Silver Spring, Md.) and the “count-measure” function. […] For each digital image, all individual cells in the RGCL were marked by a masked examiner and the optical density of each cell was measured. The relative intensities of cells in the RGCL were measured and averaged (±SEM) to yield a single value representing one retina.

Test [2] concerns HSP72. Nature of the test: Western blot for HSP72 in enriched RGC fraction after systemic administration of GGA (Experiment 1). Type of test: in vivo, rat. Particulars: GGA 200 mg/kg daily i.p. Background: A western blot detects proteins with antibodies after separation by electrophoresis.
Description: Experiment 1 was performed to evaluate the expression of HSP72 and HSC70 in RGCs after systemic administration of GGA with Western blot analysis and immunohistochemistry. For Western blotting, twelve rats were equally divided into 6 groups. Three groups of animals were given intraperitoneal injections of GGA 200 mg/kg daily and were euthanized after 1-, 3- or 7 days of administration of GGA. Three control groups were intraperitoneally administered 1) saline-vehicle daily for 7 days; 2) GGA with 4 mg/kg of quercetin (Sigma, St. Louis, Mo.) daily for 7 days; and 3) untreated animals. Enriched RGC fraction was harvested from 2 retinas of each group and used for Western blot analysis. The same experiment for isolation of RGCs and Western blotting was repeated with the other 2 retinas-from each group.
A solution of 80 mg/mL GGA was prepared in saline (Balanced salt solution; Alcon Laboratories, Inc., Fort Worth, Tex.) and emulsified for one hour in an ultrasonic generator (Branson Ultrasonic Corp., Danbury, Conn.) immediately before administration. Intraperitoneal injections of GGA were given at a dose of 200 mg/kg. Saline-vehicle was prepared and administered in the same fashion in vehicle-treated control groups.
A previously described method was modified to partially purify RGCs from other retinal cells in rat retinas.38 Briefly, two dissected rat retinas from each subgroup were washed in 2.5 ml of calcium- and magnesium-free phosphate buffered saline (PBS) at pH 7.4, and incubated in 1.25 ml of PBS containing 0.5 mg/ml trypsin and 0.01% deoxyribonuclease for 15 minutes at 37° C. This was followed by washing the retinas twice in 2.5 ml of minimal essential medium (MEM) containing 10% (vol/vol) fetal bovine serum. The retinas were subsequently washed in 2.5 ml of MEM twice and dissociated in 3 ml of MEM. The cell suspension was then mixed with 1.5 ml of 30% metrizamide (ICN Biomedicals, Inc., Aurora, Ohio) in MEM to a final concentration of 10 metrizamide. This mixture was then overlaid with 5% metrizamide in MEM, and the gradient was centrifuged at 4500 rpm (HB-4; Sorvall Instruments, Newtown, Conn.) for 25 minutes at 4° C. The cells in the 5% to 10% interface were collected. and washed in 25 ml of cold MEM. The washed cells were pelleted by centrifugation at 250×g for 10 minutes (Juan 3000C centrifuge, Winchester, Va.). The cells were then resuspended in 400 μl of MEM buffer, and the protein concentration in the cell suspension was measured with a bicinchoninic acid (BCA) protein assay kit (Pierce, Rockford, Ill.).
Western blot analysis was performed according to the procedure described by Towbin et al.39 Aliquots of 20 μg of protein from enriched RGCs were separated on a 12% SDS-polyacrylamide minigel (Bio-Rad, Hercules, Calif.) and transferred to the membrane (Immunobilon-P; Millipore Corporation, Bedford, Mass.). The membrane was blocked by incubation in 0.1% Tween-20 in 100 mM Tris-buffered saline containing 10% nonfat dried milk for 1 hour. The membranes were incubated with mouse monoclonal antibody against HSP72 (1:1000; StressGen Biotechnologies Corp., Victoria, British Columbia, Canada) or with rat monoclonal antibody against HSC70 (1:1000; StressGen) overnight and then biotinylated rabbit anti-mouse secondary antibody (1:500; Amersham Pharmacia Biotech, Inc., Piscataway, N.J.) or biotinylated goat anti-rat secondary antibody (1:500; Amersham Pharmacia) for 1 hour. This was followed by incubation with streptavidin-conjugated horseradish peroxidase (1:2000; Amersham Pharmacia) for 40 minutes. The immunoreactive bands were detected by chemiluminescence with an enhanced chemiluminescence Western blot reagent (Amersham Pharmacia).
In test [3] the test system is HSP72. Nature of the test: Immunohistochemical staining for HSP72 on retinal sections after GGA administration (Experiment 1). Type of test: in vivo, rat. How it is done:
Three experiments are summarized here, and details are provided in the subsequent sections. […] For Western blotting, twelve rats were equally divided into 6 groups. […] Enriched RGC fraction was harvested from 2 retinas of each group and used for Western blot analysis. The same experiment for isolation of RGCs and Western blotting was repeated with the other 2 retinas-from each group.
Animals were deeply anesthetized with intramuscular injections of 0.8 ml/kg of a cocktail of 5 ml ketamine (100 mg/ml), 2.5 ml xylazine (20 mg/ml), 1.0 ml acepromazine (10 mg/ml), and 1.5 ml normal saline. Then they were transcardially perfused with 4% paraformaldehyde in 0.1 M phosphate buffer. The enucleated eyeballs were immersed in fixative for 1 hour, bisected and post-fixed overnight. The eyes were embedded in paraffin and sectioned at a four-μm thickness along the vertical meridian through the optic nerve head. After deparaffinization and hydration, a species-specific Vectastain ABC kit (Vector Laboratories, Inc., Burlingame, Calif.) was chosen to match the species of primary antibody and the manufacturer's procedures were followed. The tissue sections were incubated with blocking serum solution in PBS for 1 hour. This was followed by incubation with primary antibody at 4° C overnight. The antibodies were mouse monoclonal antibody against HSP72 (1:500; StressGen Biotechnologies Corp., Victoria, British Columbia, Canada), goat polyclonal antibody against HSP72 (1:1000; Santa Cruz Biotechnology, Inc., Santa Cruz, Calif.) or rat monoclonal antibody against HSC70 (1:200; StressGen). Antigen-antibody complexes were detected by an avidin-biotin-peroxidase technique (Vectastain ABC Kit; Vector Laboratories). Diaminobenzidine (DAB) was used to produce a brown color in the target tissue and the slides were permanently mounted. As a negative control, alternate retinal section was incubated with blocking solution by replacing the primary antibody or with anti-rabbit secondary antibody by replacing the original secondary antibody.

For the substance Geranylgeranylacetone [GGA], the results for the “cells in the RGCL (cresyl violet)” value in test [1] (5 weeks of elevated IOP) and in test [1] (contralateral control retinas) were 2697±70 cells/mm2 and 2644±59 cells/mm2, respectively. Besides, in test [1] (5 weeks of elevated IOP), the “effect on loss of cells in the RGCL (in words)” value was “inhibited the loss of cells”. The “effect on number of cells in the RGCL (in words)” value in test [1] (contralateral control retinas) is “no significant effect”. For the same substance, the “effect on optic nerve injury / axonal damage (in words)” value in the test on optic nerve axons (5 weeks of IOP elevation) is given as “inhibited; also recorded: significantly ameliorated”. The “optic nerve injury grade” value in the test with optic nerve axons (5 weeks of sustained IOP elevation, scale 1 (normal) to 5 (total degeneration)) stood at 1.33±0.05; in the test with optic nerve axons (contralateral control eyes, scale 1 to 5), 1.11±0.02. In the test with optic nerve axons (contralateral control eyes), the “optic nerve injury (in words)” value is given as “no statistically significant optic nerve injury”. In addition, in the test on HSC70, the “expression of HSC70 in RGCL (immunoreactive intensity)” value is reported as “no statistically significant difference; also recorded: No change in HSC70 immunoreactivity”. For the same substance, the figures for the “immunoreactivity of HSP72 in RGCs (immunoblot)” value with HSP72 [2] (1 day), with HSP72 [2] (3 days) and in the test on HSP72 [2] (7 days) were “mild increase in immunoreactivity”, “increased HSP72 expression; also recorded: strong increase in immunoreactivity” and “increased HSP72 expression; also recorded: strong increase in immunoreactivity”, respectively. Also, in the test on HSP72 [3] (GGA i.p. 7 days), the “immunoreactivity of HSP72 in other retinal layers” value is given as “No remarkable change”. Also, the “immunoreactivity of HSP72 in cells in the RGCL (immunohistochemical staining)” value in the test with HSP72 [3] (GGA i.p. 7 days vs vehicle-treated) is “Increased immunoreactivity of HSP72”. Besides, the “levels of HSP72 in RGCs (immunohistochemical staining)” value with HSP72 [3] (oral daily dose of GGA for one week, assayed one week after last oral administration) is “increased levels of HSP72”.
